Results on 3 compounds are retold here after patent US20120149766A1, “DIETARY AND PHARMACEUTICAL COMPOSITIONS COMPRISING A SAGE EXTRACT CONTAINING A MIXTURE OF TRICYCLIC […] THEIR DERIVATIVES AND THEIR USES” (DSM IP ASSETS B.V., priority 2006, published 2012).

The test system of data set [1] is mouse. The data set can be described thus: Light-dark box test in the mouse. In kind it is in vivo. From the text: The method, which detects anxiolytic activity, follows that described by Crawley (1981, Pharmacol. Biochem. Behav., 15:695-699). Anxiolytics increase the time spent in the light compartment.
Animals were placed in the light compartment of a two-compartment box with one half light and open (25×27×27 cm) and the other half dark and closed (20×27×27 cm). The time spent in each compartment as well as the number of times the animal crossed from one side to the other was scored during a 3-min test. 15 mice were studied per group. The test was performed blind.
Clobazam (32 mg/kg p.o., dispersed in 0.2% w/v hydroxypropylmethyl cellulose in distilled water), administered 1 h before the test, was used as reference substance. Mice in this group received additional administrations of vehicle at 24 h and 5 h before the test in order to maintain experimental blinding.

Data set [2] deals with mouse. To be noted: for Number of marbles covered by sawdust, mean ± s.e.m.: 30-min test. How it is done:
Mice (n=15 per treatment group) were individually placed in transparent plastic cages (33×21×18 cm) with 5 cm of sawdust on the floor and 25 marbles (diameter 1 cm) grouped in the centre of the cage. A second, up-turned, cage served as a lid. The number of marbles covered by sawdust (by at least two-thirds) was counted at the end of the 30-min test period. Tests were performed by investigators blind to the drug treatment protocol.
Prior to testing, all test cages and marbles were “impregnated” by leaving 10 naive mice in each cage for 15 minutes.
Sage extract B (30, 100, 300 mg/kg, p.o., 24, 5 and 1 h prior to the test) was thus investigated in the marble burying test to evaluate its potential anxiolytic effects in the mouse. Clobazam, fluoxetine and venlafaxine were used as reference compounds.

[3] abbreviates: 32 mg/kg p.o. −1 h (vehicle at −24 h, −5 h).
[4] abbreviates: 32 mg/kg p.o. −1 h (vehicle at −24 h, −5 h), 3-min test.
The mark [5] stands for this setting: 32 mg/kg p.o. −1 h (vehicle at −24 h and −5 h).
Where [6] appears, read: 10 mg/kg p.o. −24 h, −5 h and −1 h.
Where [7] appears, read: 24 mg/kg p.o. −24 h, −5 h and −1 h.

The structures appear in SMILES notation. Where two headings read alike, the source gives them in different places.

On to `CN1C(=O)CC(=O)N(c2ccccc2)c2cc(Cl)ccc21` [Clobazam, clobazam], for which, in the data set with mouse [1] (setting [3]), the “Number of crossings, % change from control” value was “+6%” and the “Time spent in light compartment, % change from control” value was “+75%”. In the data set with mouse [1] (setting [4]), the “Number of crossings, mean ± s.e.m.” value came out at 11.9 ± 1.8 NS and the “Time spent in light compartment, mean ± s.e.m.” value amounted to 125.5 ± 6.4 s. Moreover, in the data set on mouse [1] (32 mg/kg p.o., mouse), the “Sedation (animals/group)” value is given as 2/15. Further, in the data set on mouse [2] (setting [5]), the “Number of marbles covered by sawdust, % change from control” value was −84% and the “Number of marbles covered by sawdust, mean ± s.e.m.” value (shortened to “Number … by sawdust, mean ± s.e.m.”) is on record as 2.9 ± 1.2.
With `CNCCC(Oc1ccc(C(F)(F)F)cc1)c1ccccc1` (stereo not shown) [Fluoxetine, fluoxetine], in the data set with mouse [2] (setting [6]), the “Number of marbles covered by sawdust, % change from control” value is listed as −58% and the “Number … by sawdust, mean ± s.e.m.” value is 7.6 ± 1.6.
Take `COc1ccc(C(CN(C)C)C2(O)CCCCC2)cc1` (stereo not shown) [Venlafaxine, venlafaxine]: in the data set on mouse [2] (setting [7]), the “Number of marbles covered by sawdust, % change from control” value is recorded as −47% and the “Number … by sawdust, mean ± s.e.m.” value stood at 9.5 ± 1.8. In the data set on mouse [2] (24 mg/kg p.o., mouse), the “Dead after the first administration (animals/group)” value was “#dead after the first administration ( 1/15) and after the second administration ( 1/15)”; the “Dead after the second administration (animals/group)” value was “#dead after the first administration ( 1/15) and after the second administration ( 1/15)”.
